Marks after values point to notes of the source that are not given here.
Columns and labels:
Assay type in all cases: cell-based, human
osteonectin = assay: Western blot of osteonectin expression after exposure to ASOs; details: single exposure, lipofectamine, 10 μM
bone sialoprotein II = assay: Western blot of bone sialoprotein II expression after exposure to ASOs; details: 10 μM
[1] = test system: MDA-MB-231 breast cancer cells; assay: Clonogenicity assay (colony formation); details: for inhibition of colony formation (colony growth inhibition): single exposure
Method: For determining the response of MDA-MB-231 colony formation to exposure with antisense oligonucleotides and erucylphospho-NNN-trimethylpropanolamine (ErPC3) the following procedure was used. MDA-MB-231 cells were treated for various periods of time (see below), harvested and counted. Cells (5000) were then transferred into semi-solid medium containing 0.8t RPMI-methylcellulose and 30% FBS. Cells were plated onto 3.5 cm Petri-dishes (1 ml/dish) (NUNC, Wiesbaden, Germany) and usual cell culture conditions (37° C., 5% CO2 in humidified air) were applied. Colony formation (clusters of 30 or more cells) was visualized by staining with 3-[4,5-dimethylthiazol-2-yl]-2,5-diphenyltetrazolium-bromide (MTT; Serva, Heidelberg, Germany) and the resulting dark blue colonies were scored by an inverted microscope after 5-7 days. At least three dishes per treatment protocol were used.
Pending on the duration of treatment, 1×10^5-3×10^5 cells were transferred onto 6 well plates (Nunc, Wiesbaden, Germany) and grown for 24 h. For transfection, ASO stock solutions were prepared in medium without FBS. According to the protocol of the manufacturer, the respective ASO stock solution was mixed with lipofectamine to allow ASO-liposome complexes to form. To 200 μl medium containing ASO quantities resulting in 10 μM (Western blot and in vivo model) and in 5, 10, or 20 μM (clonogenicity assay) final ASO-concentrations, an equal volume of medium without FBS was added containing 5, 10, or 20 μl lipofectamine, respectively. In addition to the ASO treatment, a NSO control (20 μM final concentration with 20 μl lipofectamine) and a lipofectamine control (20 μl) were used. […] After 12 h the medium was changed, and cells were further grown for 48-72 h. In the case of a sequential combination treatment this first cycle was repeated with the respective combination partner.
The alkylphosphocholine ErPC3 was synthesized and provided by Prof. H. Eibl (MPI of Biophysical Chemistry, Göttingen, FRG). For treating MDA-MB-231 cells, ErPC3 which was kept as stock solution in ethanol and PBS (10 mM; ratio of diluents 1:1; V:V), was diluted in PBS resulting in final concentrations of 10, 14, and 20 μM. The medium containing ErPC3 was changed after 24 h in all experiments and the cells were further grown for 48-72 h without ErPC3 (for details of sequential exposure see below).
Sequential combination treatment consisted of two or three treatment cycles. The two cycle treatment started either with the ASO and was followed by ErPC3 or was performed with the reverse sequence. The three cycle treatment started either with two cycles of ASO followed by ErPC3 or an initial exposure to ErPC3 was followed by two cycles with an ASO.
Colony counts are presented as mean with corresponding standard deviation. For comparison of incidences between treatment groups the x^2 test was used and for comparison of the lesion sizes the Kruskal-Wallis test was applied. P values≦0.05 were considered significant. Predicted theoretical values of combinations were calculated according to the equation: C=a×b/100, where a and b are colony counts in percent of untreated control obtained in response to single agents. For each concentration applied theoretical values were calculated and compared with the real value of the combination. In addition, isobologram and multiple drug effect analysis was examined by a suitable program (CalcuSyn, Biosoft, Ferguson, USA) to study the nature of the interaction observed. For this purpose, the dose-effect curve for each drug alone was determined based on the experimental observations using the median-effect principle; the combination index (CI) for each combination was then calculated according to the following equation:
CI=(D)1/(Dx)1+(D)2/(Dx)2+(D1)×(D2)/(Dx)1×(Dx)2
where (D)1 and (D)2 are the doses of drug 1 and drug 2 that have x effect when used in combination and (Dx)1 and (Dx)2 are the doses of drug 1 and drug 2 that have the same x effect when used alone. […]

[2] = MDA-MB231^F (growing without FBS)
[3] = MDA-MB231, single exposure, electroporation
[4] = MDA-MB231, single exposure, lipofectamine
[5] = MDA-MB231^F (growing without FBS), single exposure, lipofectamine
[6] = MDA-MB435s, single exposure, lipofectamine
[7] = MDA-MB231, twofold exposure, lipofectamine

5′-GAATCCGGTACTGTGGAAGG-3′ (antisense GAATCCGGTACTGTGGAAGG; all phosphorothioate, sugars by position and methylation of C not given here) [ASO-ON-8]
osteonectin expression in relation to untreated control (100%) (osteonectin; MDA-MB231): 54%
osteonectin expression in relation to untreated control (100%) (osteonectin; [2]): 38%
osteonectin expression in relation to untreated control (100%) (osteonectin; MDA-MB435s): 46%

5′-ATTTTGGTGATTGCTTCCTC-3′ (antisense ATTTTGGTGATTGCTTCCTC; all phosphorothioate, sugars by position and methylation of C not given here) [ASO-BSPII-2]
bone sialoprotein II expression in relation to untreated control (100%) (bone sialoprotein II; [3]): 94%
bone sialoprotein II expression in relation to untreated control (100%) (bone sialoprotein II; [4]): 38%
bone sialoprotein II expression in relation to untreated control (100%) (bone sialoprotein II; [5]): 94%
bone sialoprotein II expression in relation to untreated control (100%) (bone sialoprotein II; [6]): 26%

5′-CCATCATCAAATTCTCCTAC-3′ (antisense CCATCATCAAATTCTCCTAC; all phosphorothioate, sugars by position and methylation of C not given here) [ASO-ON-2]
osteonectin expression in relation to untreated control (100%) (osteonectin; MDA-MB231): 61%
osteonectin expression in relation to untreated control (100%) (osteonectin; [2]): 17%
osteonectin expression in relation to untreated control (100%) (osteonectin; MDA-MB435s): 64%

5′-TGATTGCTTCCTCTGGCAGT-3′ (antisense TGATTGCTTCCTCTGGCAGT; all phosphorothioate, sugars by position and methylation of C not given here) [ASO-BSPII-1]
bone sialoprotein II expression in relation to untreated control (100%) (bone sialoprotein II; [3]): 78%
bone sialoprotein II expression in relation to untreated control (100%) (bone sialoprotein II; [4]): 45%
bone sialoprotein II expression in relation to untreated control (100%) (bone sialoprotein II; [7]): 19^2) %
bone sialoprotein II expression in relation to untreated control (100%) (bone sialoprotein II; [5]): 58%
bone sialoprotein II expression in relation to untreated control (100%) (bone sialoprotein II; [6]): 16%

CCCCCCCC/C=C\CCCCCCCCCCCCOP(=O)([O-])OCCC[N+](C)(C)C [ErPC3, Erucylphospho-NNN-trimethylpropanolamine, reference compound]
% Control ([1]; Exp. III a, 14 μM): 52%
Mean colony no. ([1]; Exp. III a, 14 μM, control 456): 239^5)
% Control ([1]; Experiment I, single treatment, 10 μM): 89%
Mean colony no. ([1]; Experiment I, single treatment, 10 μM, control 778): 691^8)
% Control ([1]; Experiment I, single treatment, 14 μM): 55%
Mean colony no. ([1]; Experiment I, single treatment, 14 μM, control 778): 425^7)
% Control ([1]; Experiment I, single treatment, 20 μM): 22%
Mean colony no. ([1]; Experiment I, single treatment, 20 μM, control 778): 169
% Control ([1]; Experiment II, single treatment, 10 μM): 88%
Mean colony no. ([1]; Experiment II, single treatment, 10 μM, control 705): 621^8)
% Control ([1]; Experiment II, single treatment, 14 μM): 55%
Mean colony no. ([1]; Experiment II, single treatment, 14 μM, control 705): 385^7)
% Control ([1]; Experiment II, single treatment, 20 μM): 25%
Mean colony no. ([1]; Experiment II, single treatment, 20 μM, control 705): 173
% Control ([1]; Experiment III b, 14 μM): 59%
Mean colony no. ([1]; Experiment III b, 14 μM, control 517): 311^5)
inhibition of colony formation (colony growth inhibition) ([1]; 10 μM): 11%
inhibition of colony formation (colony growth inhibition) ([1]; 14 μM): 45%
inhibition of colony formation (colony growth inhibition) ([1]; 20 μM): 78%

5′-CTTCATCACTTTCCTTCTCT-3′ (antisense CTTCATCACTTTCCTTCTCT; all phosphorothioate, sugars by position and methylation of C not given here) [ASO-BSPII-5]
bone sialoprotein II expression in relation to untreated control (100%) (bone sialoprotein II; [3]): 63%
bone sialoprotein II expression in relation to untreated control (100%) (bone sialoprotein II; [4]): 27%
bone sialoprotein II expression in relation to untreated control (100%) (bone sialoprotein II; [7]): 46%
bone sialoprotein II expression in relation to untreated control (100%) (bone sialoprotein II; [5]): 101%
bone sialoprotein II expression in relation to untreated control (100%) (bone sialoprotein II; [6]): 41%

5′-ACTGGTGGTGGTAGTAATTC-3′ (antisense ACTGGTGGTGGTAGTAATTC; all phosphorothioate, sugars by position and methylation of C not given here) [ASO-BSPII-9]
bone sialoprotein II expression in relation to untreated control (100%) (bone sialoprotein II; [3]): 46%
bone sialoprotein II expression in relation to untreated control (100%) (bone sialoprotein II; [4]): 35%
bone sialoprotein II expression in relation to untreated control (100%) (bone sialoprotein II; [5]): 84%
bone sialoprotein II expression in relation to untreated control (100%) (bone sialoprotein II; [6]): 49%

5′-TCACTGGTGGTGGTAGTAAT-3′ (antisense TCACTGGTGGTGGTAGTAAT; all phosphorothioate, sugars by position and methylation of C not given here) [ASO-BSPII-10]
bone sialoprotein II expression in relation to untreated control (100%) (bone sialoprotein II; [3]): 40%
bone sialoprotein II expression in relation to untreated control (100%) (bone sialoprotein II; [4]): 33%
bone sialoprotein II expression in relation to untreated control (100%) (bone sialoprotein II; [5]): 30%
bone sialoprotein II expression in relation to untreated control (100%) (bone sialoprotein II; [6]): 39%

5′-TTCCGGTCTCTGTGGTGTCT-3′ [ASO-BSPII-7]
bone sialoprotein II expression in relation to untreated control (100%) (bone sialoprotein II; [3]): 25%
bone sialoprotein II expression in relation to untreated control (100%) (bone sialoprotein II; [4]): 58%
bone sialoprotein II expression in relation to untreated control (100%) (bone sialoprotein II; [7]): 22%
bone sialoprotein II expression in relation to untreated control (100%) (bone sialoprotein II; [5]): 37%
bone sialoprotein II expression in relation to untreated control (100%) (bone sialoprotein II; [6]): 51%

5′-CTGCCTTCCGGTCTCTGTGG-3′ (antisense CTGCCTTCCGGTCTCTGTGG; all phosphorothioate, sugars by position and methylation of C not given here) [ASO-BSPII-8]
bone sialoprotein II expression in relation to untreated control (100%) (bone sialoprotein II; [3]): 34%
bone sialoprotein II expression in relation to untreated control (100%) (bone sialoprotein II; [4]): 62%
bone sialoprotein II expression in relation to untreated control (100%) (bone sialoprotein II; [7]): 25%
bone sialoprotein II expression in relation to untreated control (100%) (bone sialoprotein II; [5]): 101%
bone sialoprotein II expression in relation to untreated control (100%) (bone sialoprotein II; [6]): 32%

5′-ATTCTTCATTGTTTTCTCCT-3 (antisense ATTCTTCATTGTTTTCTCCT; all phosphorothioate, sugars by position and methylation of C not given here) [ASO-BSPII-4]
bone sialoprotein II expression in relation to untreated control (100%) (bone sialoprotein II; [3]): 55%
bone sialoprotein II expression in relation to untreated control (100%) (bone sialoprotein II; [4]): 73%
bone sialoprotein II expression in relation to untreated control (100%) (bone sialoprotein II; [5]): 109%
bone sialoprotein II expression in relation to untreated control (100%) (bone sialoprotein II; [6]): 26%

5′-CTTCATTGTTTTCTCCTTCA-3′ (antisense CTTCATTGTTTTCTCCTTCA; all phosphorothioate, sugars by position and methylation of C not given here) [ASO-BSPII-3]
bone sialoprotein II expression in relation to untreated control (100%) (bone sialoprotein II; [3]): 44%
bone sialoprotein II expression in relation to untreated control (100%) (bone sialoprotein II; [4]): 97%
bone sialoprotein II expression in relation to untreated control (100%) (bone sialoprotein II; [5]): 93%
bone sialoprotein II expression in relation to untreated control (100%) (bone sialoprotein II; [6]): 22%
